The values below come from patent US4521430A, “1,5-Benzothiazepin-4-one, their pharmaceutical compositoins, and methods of use” (Tanabe Seiyaku Co., Ltd., priority 1983, dated 1985).

The subject of one data set is platelet aggregation. The data set is described as follows: Platelet aggregation-inhibiting activity, collagen, platelet-rich plasma (Experiment 4). It counts as cell-based, Sprague-Dawley rats. Further details: key: -: the test compound showed less than 10% inhibition of platelet aggregation; +: the test compound showed not less than 10% inhibition of platelet aggregation but said percentage inhibition was lower than that of acetylsalicylic acid (100 μg/ml); ++: the test compound showed the platelet aggregation-inhibiting activity at least as strong as that of acetylsalicylic acid (100 μg/ml). As to conditions: final concentration 100 μg/ml, rat PRP, 37° C., Table 3. The source says:
Blood was collected from the abdominal aorta of male Sprague-Dawley rats which were anesthetized with ether. Nine volumes of said blood were mixed with one volume of an aqueous 3.8% (w/v) trisodium citrate solution, and the mixture was centrifuged to give platelet-rich plasma ("PRP") as the supernatant solution. The bottom layer was further centrifuged to give platelet-poor plasma ("PPP") as the supernatant solution. Platelet counts were adjusted to 0.8-1×10^6 /mm^3 for PRP by dilution with PPP. After a mixture of 200 μl of the diluted PRP and 25 μl of a test compound solution (final concentration: 100 μg/ml) was stirred for 2 minutes at 37° C., 25 μl of a collagen solution (Biochim. Biophys. Acta, 186, page 254(1969)) were added thereto. The degree of platelet aggregation was estimated by Born's method (Nature, 194, page 927(1962)) and percentage inhibition of platelet aggregation was calculated therefrom.

A further data set deals with calmodulin (Homo sapiens, UniProt P0DP23). Nature of the data set: Anti-calmodulin activity: activation of phosphodiesterase activity by calmodulin (Experiment 5). As to conditions: pH 7.5, 30° C.; Table 4; read-out: ID50 (concentration for 50% inhibition of the activation of phosphodiesterase activity by calmodulin). Format: biochemical.
Another data set has as its system cerebral ischemia. Nature of the data set: Protective effect on cerebral ischemia: recovery of electrocorticogram activity after occlusion of common carotid and vertebral artery. As to conditions: rats, 0.1 mg/kg/minute intravenously, within one hour after reestablishment of cerebral blood flow. Format: in vivo.
The test system of data set [1] is vertebral artery blood flow. Nature of the data set: Cerebral vasodilating activity: vertebral artery blood flow in anesthetized dogs, injection into vertebral artery (Experiment 1). It counts as in vivo. Here is the method: (§1) For example, when the cerebral vasodilating activity is evaluated by examining vertebral artery blood flow in anesthetized dogs to which a test compound is intraarterially administered, said activity of (+)-cis-2-(4-methoxyphenyl)-3-(2-chloro-4-nitrobenzoyloxy)-5-[2-(dimethylamino)ethyl]-2,3-dihydro-1,5-benzothiazepin-4-(5H)-one fumarate is 4.5 times stronger than that of papaverine. On the other hand, the coronary vasodilating activity of (+)-cis-2-(4-methoxyphenyl)-3-(2-chloro-4-nitrobenzoyloxy)-5-[2-(dimethylamino)ethyl]-2,3-dihydro-1,5-benzothiazepin-4(5H)-one fumarate when examined by the Langendorff method using isolated hearts of guinea pigs is 10 times stronger than that of papaverine.
(§2) (Cerebral vasodilating activity)
Male dogs weighing 10 to 20 kg were anesthetized with sodium pentobarbital (30 mg/kg, intravenous injection). The blood flow in vertebral artery was measured continuously by means of an electromagnetic flowmeter under artificial respiration. A test compound dissolved in an aqueous 5% glucose solution was injected into vertebral artery. The cerebral vasodilating activity of the test compound was estimated in terms of "the potency ratio of said compound to papaverin" which was calculated from the dose-responsecurves thereof.

A further data set in a line: Acute toxicity, oral. As to conditions: mouse, in vivo, mice, orally. The source says:
The compound (I) is further characteristic in that said compound is low in toxicity. For example, the acute toxicity (LD50) of (+)-cis-2-(4-methoxyphenyl)-3-(2-chloro-4-nitrobenzoyloxy)-5-[2-(dimethylamino)ethyl]-2,3-dihydro-1,5-benzothiazepin-4(5H)-one fumarate, when administered to mice orally, is more than 2 g/kg.

The subject of data set [2] is coronary blood flow of the isolated heart. Nature of the data set: Coronary vasodilating activity: Langendorff's method, coronary blood flow of isolated heart (Experiment 3). Further details: species or system guinea pig. Here is the method: as §1
Langendorff's method was used for testing the effect on the coronary blood flow of the isolated heart of guinea pig (about 280 g). The isolated heart was perfused with Locke-Ringer solution containing 2% of defibrinated rabbit blood, which had been saturated with a mixed gas of 95% O2 and 5% CO2 (30° C.). Perfusion pressure was kept at 40 cm H2 O. A solution of a test compound in an aqueous 5% glucose solution was injected into the perfusing solution at a volume of 0.1 ml per heart. The outflow of the perfusate was measured by means of a drop counter.
The coronary vasodilating activity of the test compound was expressed as "±" if the increase in coronary blood flow is less than 0.5 ml/minute at a dose of 100 μg/heart; "+" if the increase is not less than 0.5 ml/minute at a dose of 100 μg/heart; "++" if the increase is not less than 0.5 ml/minute at a dose of 30 μg/heart; and "+++" if the increase is not less than 0.5 ml/minute at a dose of not more than 10 μg/heart.

The subject of data set [3] is atrioventricular conduction. Nature of the data set: Atrioventricular conduction in anesthetized guinea pigs, intravenous. It counts as in vivo. As to conditions: 3 mg/kg intravenously.
A further data set concerns vertebral blood flow. The data set is described as follows: Cerebral vasodilating activity: total increase in vertebral blood flow in anesthetized dogs, intravenous (Experiment 2). Format: in vivo. As to conditions: anesthetized male dogs, 0.2 mg/kg intravenously; increase at peak response x half duration time. As for the experimental part:
as §2
Male dogs weighing 11 to 16 kg (one group: 3 dogs) were anesthetized with sodium pentobarbital (30 mg/kg, intravenous injection). The vertebral blood flow was measured by means of an electromagnetic flowmeter under artificial respiration. A test compound dissolved in an aqueous 5% glucose solution was injected intravenously at a dose of 0.2 mg/kg. The cerebral vasodilating activity of the test compound was estimated in terms of "total increase in vertebral blood flow" which was calculated by multiplying "increase (Δml/minute) in blood flow at peak response" by "half duration time (T 1/2:minute)".

For the compound `COc1ccc([C@@H]2Sc3ccccc3N(CCN(C)C)C(=O)[C@@H]2OC(=O)c2ccc([N+](=O)[O-])cc2Cl)cc1.O=C(O)/C=C/C(=O)O` [(+)-cis-2-(4-methoxyphenyl)-3-(2-chloro-4-nitrobenzoyloxy)-5-[2-(dimethylamino)ethyl]-2,3-dihydro-1,5-benzothiazepin-4(5H)-one fumarate], the “Platelet aggregation-inhibiting activity (class)” value in the data set on platelet aggregation was “++”. For the same compound, the IC50 at calmodulin was 2500 nM. Besides, the “recovery of electrocorticogram (ECoG) activity” value in the data set on cerebral ischemia is recorded as “about 50%”. Further, the “Cerebral vasodilating activity (potency ratio to papaverin, class)” value in data set [1] (anesthetized male dogs, injected into vertebral artery, Table 1) is given as “+++ (the potency ratio is not less than 3)”. Also, the “cerebral vasodilating activity, times stronger than that of papaverine” value in data set [1] (vertebral artery blood flow, anesthetized dogs, intraarterial) came out at 4.5 times. The LD50 (usually the dose at which mortality reaches 50%) in “Acute toxicity, oral” was over 2000 mg/kg. Moreover, in data set [2] (Langendorff method, isolated hearts of guinea pigs), the “coronary vasodilating activity, times stronger than that of papaverine” value worked out at 10 times. Besides, in data set [2] (isolated guinea pig heart, Langendorff, Table 2), the “Coronary vasodilating activity (class)” value is recorded as “+++ (the increase is not less than 0.5 ml/minute at a dose of not more than 10 μg/heart)”. For the same compound, the “disturbance of atrioventricular conduction” value in data set [3] is on record as “did not induce disturbance of atrioventricular conduction”. The “total increase in vertebral blood flow” value in the data set with vertebral blood flow stood at 91 mL.
